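Interpolation was linear, between the two tested concentrations surrounding the appropriate level; five concentrations were tested over 48 hours in 96-well plates. TGI marks complete inhibition of growth.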
How the values were obtained:
Assay in all cases: NCI tumour cell line growth inhibition, 48 h
HOP-18 NSCLC = system: HOP-18 NSCLC
DLD-1 colon = system: DLD-1 colon
SN12K1 renal = system: SN12K1 renal
P388 leukemia = system: P388 leukemia
KM20L2 colon = system: KM20L2 colon
P388/ADR leukemia = system: P388/ADR leukemia
XF 498 CNS = system: XF 498 CNS
DMS 273 small cell lung = system: DMS 273 small cell lung
RXF-631 renal = system: RXF-631 renal

| Structure (SMILES) | TGI (HOP-18 NSCLC) [µM] | TGI (DLD-1 colon) [µM] | TGI (SN12K1 renal) [µM] | TGI (P388 leukemia) [µM] | TGI (KM20L2 colon) [µM] | TGI (P388/ADR leukemia) [µM] | TGI (XF 498 CNS) [µM] | TGI (DMS 273 small cell lung) [µM] | TGI (RXF-631 renal) [µM] |
| --- | --- | --- | --- | --- | --- | --- | --- | --- | --- |
| COc1ccc(C2C(Cl)C(=O)N2NC(=O)c2ccc(NC(C)=O)cc2)cc1OC (stereo not given) | > 100 | – | – | – | – | – | – | – | – |
| CSc1nc(NC2OC(CO)C(O)C(O)C2O)c(N)c(=O)n1C (stereo not given) | > 100 | > 100 | > 100 | > 100 | > 100 | > 100 | > 100 | > 100 | – |
| CCN(CC)CCSc1nc2c([N+](=O)[O-])cccc2[nH]1 | – | – | – | – | – | – | > 100 | > 100 | > 100 |
| CC(C)=CCC/C(C)=C/CC/C(C)=C/C(O)c1ccccc1 (stereo not given) | – | 34.4 | – | – | 36 | – | – | – | 34.1 |

From PubChem BioAssay (NCI)
